Experimental data reported in ChEMBL document CHEMBL1138574, “Regioselective synthesis and stereochemical structure of anti-tumor active dispiro[3H-indole-3,2'-pyrrolidine-3',3''-piperidine]-2(1H),4''-diones” (2009).

Tested on: Rattus norvegicus
Test: Antiinflammatory activity in Wister albino rat assessed as inhibition of carrageenan-induced paw oedema at 50 mg/kg, ip administered 1 hr before carrageenan challenge measured after 3 hrs of induction of inflammation relative to control
Format: functional
Conditions: route intraperitoneal

Row | Structure (SMILES) | inhibition in vivo at 50 mg/kg [%]
1 | CN1C/C(=C\c2ccc(-c3cccs3)cc2)C(=O)[C@]2(C1)[C@@H](c1ccc(-c3cccs3)cc1)CN(C)[C@@]21C(=O)N(C)c2ccccc21 | 73.9

Tested on: HOP-62
Test: Antitumor activity against human HOP62 cells assessed as cell growth at 10 uM after 48 hrs by sulforhodamine B assay
Format: functional
Conditions: HOP-62, 48 h, read-out: Activity

Row | Structure (SMILES) | growth at 10 µM [%]
2 | CN1C/C(=C\c2ccc(-c3cccs3)cc2)C(=O)[C@]2(C1)[C@@H](c1ccc(-c3cccs3)cc1)CN(C)[C@@]21C(=O)N(C)c2ccccc21 | 58.8

Tested on: BT-549
Test: Antitumor activity against human BT549 cells assessed as cell growth at 10 uM after 48 hrs by sulforhodamine B assay
Format: functional
Conditions: BT-549, 48 h, read-out: Activity

Row | Structure (SMILES) | growth at 10 µM [%]
3 | CN1C/C(=C\c2ccc(-c3cccs3)cc2)C(=O)[C@]2(C1)[C@@H](c1ccc(-c3cccs3)cc1)CN(C)[C@@]21C(=O)N(C)c2ccccc21 | 79.7

Tested on: COLO 205
Test: Antitumor activity against human COLO205 cells assessed as cell growth at 10 uM after 48 hrs by sulforhodamine B assay
Format: functional
Conditions: COLO 205, 48 h, read-out: Activity

Row | Structure (SMILES) | growth at 10 µM [%]
4 | CN1C/C(=C\c2ccc(-c3cccs3)cc2)C(=O)[C@]2(C1)[C@@H](c1ccc(-c3cccs3)cc1)CN(C)[C@@]21C(=O)N(C)c2ccccc21 | 69

Tested on: SK-MEL-2
Test: Antitumor activity against human SK-MEL-2 cells assessed as cell growth at 10 uM after 48 hrs by sulforhodamine B assay
Format: functional
Conditions: SK-MEL-2, 48 h, read-out: Activity

Row | Structure (SMILES) | growth at 10 µM [%]
5 | CN1C/C(=C\c2ccc(-c3cccs3)cc2)C(=O)[C@]2(C1)[C@@H](c1ccc(-c3cccs3)cc1)CN(C)[C@@]21C(=O)N(C)c2ccccc21 | 68.6

Tested on: HCT-116
Test: Antitumor activity against human HCT116 cells assessed as cell growth at 10 uM after 48 hrs by sulforhodamine B assay
Format: functional
Conditions: HCT-116, 48 h, read-out: Activity

Row | Structure (SMILES) | growth at 10 µM [%]
6 | CN1C/C(=C\c2ccc(-c3cccs3)cc2)C(=O)[C@]2(C1)[C@@H](c1ccc(-c3cccs3)cc1)CN(C)[C@@]21C(=O)N(C)c2ccccc21 | 30.6

Tested on: HCC 2998
Test: Antitumor activity against human HCC2998 cells assessed as cell growth at 10 uM after 48 hrs by sulforhodamine B assay
Format: functional
Conditions: HCC 2998, 48 h, read-out: Activity

Row | Structure (SMILES) | growth at 10 µM [%]
7 | CN1C/C(=C\c2ccc(-c3cccs3)cc2)C(=O)[C@]2(C1)[C@@H](c1ccc(-c3cccs3)cc1)CN(C)[C@@]21C(=O)N(C)c2ccccc21 | 40.6

Tested on: T47D
Test: Antitumor activity against human T47D cells assessed as cell growth at 10 uM after 48 hrs by sulforhodamine B assay
Format: functional
Conditions: read-out: Activity

Row | Structure (SMILES) | growth at 10 µM [%]
8 | CN1C/C(=C\c2ccc(-c3cccs3)cc2)C(=O)[C@]2(C1)[C@@H](c1ccc(-c3cccs3)cc1)CN(C)[C@@]21C(=O)N(C)c2ccccc21 | 22.7

Tested on: MDA-MB-231
Test: Antitumor activity against human MDA-MB-231 cells assessed as cell growth at 10 uM after 48 hrs by sulforhodamine B assay
Format: functional
Conditions: MDA-MB-231, 48 h, read-out: Activity

Row | Structure (SMILES) | growth at 10 µM [%]
9 | CN1C/C(=C\c2ccc(-c3cccs3)cc2)C(=O)[C@]2(C1)[C@@H](c1ccc(-c3cccs3)cc1)CN(C)[C@@]21C(=O)N(C)c2ccccc21 | 52.4

Tested on: K562
Test: Antitumor activity against human K562 cells assessed as cell growth at 10 uM after 48 hrs by sulforhodamine B assay
Format: functional
Conditions: K562, 48 h, read-out: Activity

Row | Structure (SMILES) | growth at 10 µM [%]
10 | CN1C/C(=C\c2ccc(-c3cccs3)cc2)C(=O)[C@]2(C1)[C@@H](c1ccc(-c3cccs3)cc1)CN(C)[C@@]21C(=O)N(C)c2ccccc21 | 59.5

Tested on: MDA-MB-435
Test: Antitumor activity against human MDA-MB-435 cells assessed as cell growth at 10 uM after 48 hrs by sulforhodamine B assay
Format: functional
Conditions: MDA-MB-435, 48 h, read-out: Activity

Row | Structure (SMILES) | growth at 10 µM [%]
11 | CN1C/C(=C\c2ccc(-c3cccs3)cc2)C(=O)[C@]2(C1)[C@@H](c1ccc(-c3cccs3)cc1)CN(C)[C@@]21C(=O)N(C)c2ccccc21 | 40.6

Tested on: Rattus norvegicus
Test: Antiinflammatory activity in Wister albino rat assessed as inhibition of carrageenan-induced paw oedema at 50 mg/kg, ip administered 1 hr before carrageenan challenge measured after 24 hrs of induction of inflammation relative to control
Format: functional
Conditions: route intraperitoneal

Row | Structure (SMILES) | inhibition in vivo at 50 mg/kg [%]
12 | CN1C/C(=C\c2ccc(-c3cccs3)cc2)C(=O)[C@]2(C1)[C@@H](c1ccc(-c3cccs3)cc1)CN(C)[C@@]21C(=O)N(C)c2ccccc21 | 74.3

Tested on: MDA-MB-468
Test: Antitumor activity against human MDA-MB-468 cells assessed as cell growth at 10 uM after 48 hrs by sulforhodamine B assay
Format: functional
Conditions: MDA-MB-468, 48 h, read-out: Activity

Row | Structure (SMILES) | growth at 10 µM [%]
13 | CN1C/C(=C\c2ccc(-c3cccs3)cc2)C(=O)[C@]2(C1)[C@@H](c1ccc(-c3cccs3)cc1)CN(C)[C@@]21C(=O)N(C)c2ccccc21 | 33.4

Tested on: HCT-15
Test: Antitumor activity against human HCT15 cells assessed as cell growth at 10 uM after 48 hrs by sulforhodamine B assay
Format: functional
Conditions: HCT-15, 48 h, read-out: Activity

Row | Structure (SMILES) | growth at 10 µM [%]
14 | CN1C/C(=C\c2ccc(-c3cccs3)cc2)C(=O)[C@]2(C1)[C@@H](c1ccc(-c3cccs3)cc1)CN(C)[C@@]21C(=O)N(C)c2ccccc21 | 62.1

Tested on: NCI-H522
Test: Antitumor activity against human NCI-H522 cells assessed as cell growth at 10 uM after 48 hrs by sulforhodamine B assay
Format: functional
Conditions: NCI-H522, 48 h, read-out: Activity

Row | Structure (SMILES) | growth at 10 µM [%]
15 | CN1C/C(=C\c2ccc(-c3cccs3)cc2)C(=O)[C@]2(C1)[C@@H](c1ccc(-c3cccs3)cc1)CN(C)[C@@]21C(=O)N(C)c2ccccc21 | 49.4

Tested on: CCRF-CEM
Test: Antitumor activity against human CCRF-CEM cells assessed as cell growth at 10 uM after 48 hrs by sulforhodamine B assay
Format: functional
Conditions: read-out: Activity

Row | Structure (SMILES) | growth at 10 µM [%]
16 | CN1C/C(=C\c2ccc(-c3cccs3)cc2)C(=O)[C@]2(C1)[C@@H](c1ccc(-c3cccs3)cc1)CN(C)[C@@]21C(=O)N(C)c2ccccc21 | 56.4

Tested on: NCI-H322M
Test: Antitumor activity against human NCI-H322M cells assessed as cell growth at 10 uM after 48 hrs by sulforhodamine B assay
Format: functional
Conditions: read-out: Activity

Row | Structure (SMILES) | growth at 10 µM [%]
17 | CN1C/C(=C\c2ccc(-c3cccs3)cc2)C(=O)[C@]2(C1)[C@@H](c1ccc(-c3cccs3)cc1)CN(C)[C@@]21C(=O)N(C)c2ccccc21 | 75

Tested on: ACHN
Test: Antitumor activity against human ACHN cells assessed as cell growth at 10 uM after 48 hrs by sulforhodamine B assay
Format: functional
Conditions: read-out: Activity

Row | Structure (SMILES) | growth at 10 µM [%]
18 | CN1C/C(=C\c2ccc(-c3cccs3)cc2)C(=O)[C@]2(C1)[C@@H](c1ccc(-c3cccs3)cc1)CN(C)[C@@]21C(=O)N(C)c2ccccc21 | 56.5

Tested on: HT-29
Test: Antitumor activity against human HT-29 cells assessed as cell growth at 10 uM after 48 hrs by sulforhodamine B assay
Format: functional
Conditions: HT-29, 48 h, read-out: Activity

Row | Structure (SMILES) | growth at 10 µM [%]
19 | CN1C/C(=C\c2ccc(-c3cccs3)cc2)C(=O)[C@]2(C1)[C@@H](c1ccc(-c3cccs3)cc1)CN(C)[C@@]21C(=O)N(C)c2ccccc21 | 56.1

Tested on: SR
Test: Antitumor activity against human SR cells assessed as cell growth at 10 uM after 48 hrs by sulforhodamine B assay
Format: functional
Conditions: read-out: Activity

Row | Structure (SMILES) | growth at 10 µM [%]
20 | CN1C/C(=C\c2ccc(-c3cccs3)cc2)C(=O)[C@]2(C1)[C@@H](c1ccc(-c3cccs3)cc1)CN(C)[C@@]21C(=O)N(C)c2ccccc21 | 30.5

Tested on: EKVX
Test: Antitumor activity against human EKVX cells assessed as cell growth at 10 uM after 48 hrs by sulforhodamine B assay
Format: functional
Conditions: read-out: Activity

Row | Structure (SMILES) | growth at 10 µM [%]
21 | CN1C/C(=C\c2ccc(-c3cccs3)cc2)C(=O)[C@]2(C1)[C@@H](c1ccc(-c3cccs3)cc1)CN(C)[C@@]21C(=O)N(C)c2ccccc21 | 47.1

Tested on: Rattus norvegicus
Test: Antiinflammatory activity in Wister albino rat assessed as inhibition of carrageenan-induced paw oedema at 50 mg/kg, ip administered 1 hr before carrageenan challenge measured after 1 hr of induction of inflammation relative to control
Format: functional
Conditions: route intraperitoneal

Row | Structure (SMILES) | inhibition in vivo at 50 mg/kg [%]
22 | CN1C/C(=C\c2ccc(-c3cccs3)cc2)C(=O)[C@]2(C1)[C@@H](c1ccc(-c3cccs3)cc1)CN(C)[C@@]21C(=O)N(C)c2ccccc21 | 84.7

Tested on: CAKI-1
Test: Antitumor activity against human Caki1 cells assessed as cell growth at 10 uM after 48 hrs by sulforhodamine B assay
Format: functional
Conditions: CAKI-1, 48 h, read-out: Activity

Row | Structure (SMILES) | growth at 10 µM [%]
23 | CN1C/C(=C\c2ccc(-c3cccs3)cc2)C(=O)[C@]2(C1)[C@@H](c1ccc(-c3cccs3)cc1)CN(C)[C@@]21C(=O)N(C)c2ccccc21 | 57.2

Tested on: Rattus norvegicus
Test: Antiinflammatory activity in Wister albino rat assessed as inhibition of carrageenan-induced paw oedema at 50 mg/kg, ip administered 1 hr before carrageenan challenge measured after 2 hrs of induction of inflammation relative to control
Format: functional
Conditions: route intraperitoneal

Row | Structure (SMILES) | inhibition in vivo at 50 mg/kg [%]
24 | CN1C/C(=C\c2ccc(-c3cccs3)cc2)C(=O)[C@]2(C1)[C@@H](c1ccc(-c3cccs3)cc1)CN(C)[C@@]21C(=O)N(C)c2ccccc21 | 68.3

Tested on: OVCAR-3
Test: Antitumor activity against human OVCAR-3 cells assessed as cell growth at 10 uM after 48 hrs by sulforhodamine B assay
Format: functional
Conditions: OVCAR-3, 48 h, read-out: Activity

Row | Structure (SMILES) | growth at 10 µM [%]
25 | CN1C/C(=C\c2ccc(-c3cccs3)cc2)C(=O)[C@]2(C1)[C@@H](c1ccc(-c3cccs3)cc1)CN(C)[C@@]21C(=O)N(C)c2ccccc21 | 33.6

Tested on: IGROV-1
Test: Antitumor activity against human IGROV1 cells assessed as cell growth at 10 uM after 48 hrs by sulforhodamine B assay
Format: functional
Conditions: IGROV-1, 48 h, read-out: Activity

Row | Structure (SMILES) | growth at 10 µM [%]
26 | CN1C/C(=C\c2ccc(-c3cccs3)cc2)C(=O)[C@]2(C1)[C@@H](c1ccc(-c3cccs3)cc1)CN(C)[C@@]21C(=O)N(C)c2ccccc21 | 81.4

Tested on: Malme-3M
Test: Antitumor activity against human MALME-3M cells assessed as cell growth at 10 uM after 48 hrs by sulforhodamine B assay
Format: functional
Conditions: read-out: Activity

Row | Structure (SMILES) | growth at 10 µM [%]
27 | CN1C/C(=C\c2ccc(-c3cccs3)cc2)C(=O)[C@]2(C1)[C@@H](c1ccc(-c3cccs3)cc1)CN(C)[C@@]21C(=O)N(C)c2ccccc21 | 76.4

Tested on: DU-145
Test: Antitumor activity against human DU145 cells assessed as cell growth at 10 uM after 48 hrs by sulforhodamine B assay
Format: functional
Conditions: DU-145, 48 h, read-out: Activity

Row | Structure (SMILES) | growth at 10 µM [%]
28 | CN1C/C(=C\c2ccc(-c3cccs3)cc2)C(=O)[C@]2(C1)[C@@H](c1ccc(-c3cccs3)cc1)CN(C)[C@@]21C(=O)N(C)c2ccccc21 | 67.4
